Assay results: patent publication US11752122B2 (OKLAHOMA MEDICAL RESEARCH FOUNDATION, priority 2018, dated 2023)
Entries after “also recorded” stand apart in the source; their conditions may differ. Like-named read-outs stand apart in the source and are kept apart here.

Assays:
[1] = tested on: TGF-β1platelet-KO-LDLR mice on HFD; test: Aortic stenosis progression in TGF-β1platelet-KO-LDLR mice on HFD, echocardiography; assay type: in vivo; details: TGF-β1platelet-KO-LDLR mice on HFD treated with NAC
From the text: Mice. Hypercholesterolemic mice deficient for low-density lipoprotein receptors (Ldlr−/−), which only express ApoB-100 (Ldlr−/−Apob100/100, LDLR), were obtained from Jackson Laboratories (B6; 129SLdlrtm1HerApobtm2Sgy/J, stock no. 003000). WT C57bl/6 mice were also obtained from the Jackson Laboratory (stock no. 000664) and served as controls. TGF-β1^platelet-KO-LDLR mice (Pf4Cre+Tgfb1f/f;Ldlr−/−Apob100/100;) and TGF-β1^flox-LDLR littermate controls (Tgfb1f/f;Ldlr−/−Apob100/100) were generated by crossing LDLR mice with Pf4Cre+;Tgfb1f/f mice, as shown in FIGS. 7A-B and Supplemental Table 5. […]
Experimental Design. […] Progression and severity (mild/moderate/severe) of AS were monitored at 0, 3, 6 and 9 months by echocardiography using non-invasive ultrasound imaging techniques. […]
Echocardiography. […] Electrode gel was used to enhance the physiologic readings. To ensure accuracy of all echo measurements, physiological parameters were monitored and recordings were only taken if the heart rate was 430-550 beats per minute, respiration was 20-100 breaths per minute, and body temperature was close to 37° C. […]
Measurement of AS parameters using a modified view of ultrasound imaging. […] LVOT was measured from the long-axis view and was used to calculate AV pressure and normalize the cusp separation (Lindman et al., 2016; Meyer et al., 2012). […]

[2] = cited from earlier work
[3] = Activity and stability of NAC dissolved in water; assay type: physicochemical; details: up to 15 days; tested by effect on blocking shear-dependent TGF-β1 activation
From the text: Experimental Design. […] Water was replaced with a fresh solution every week.

TGF-β1 = target: T1, TGF-β1 (Mus musculus, UniProt P04202); test: Shear-dependent TGF-β1 activation in platelet-rich plasma from NAC-treated mice (ELISA); assay type: in vivo; details: PRP from NAC-treated vs control mice, shear force of 1,800 s^−1 for 2 hours, ELISA (FIG. 4A)
T1 construct: Active TGF-β1 levels in platelet-rich plasma from NAC-treated (n=6) and -untreated (n=8) mice after in vitro stirring; from tissue; host or cells: mouse platelet-rich plasma (blood)
T1 sequence (P04202 30-278 limits assumed): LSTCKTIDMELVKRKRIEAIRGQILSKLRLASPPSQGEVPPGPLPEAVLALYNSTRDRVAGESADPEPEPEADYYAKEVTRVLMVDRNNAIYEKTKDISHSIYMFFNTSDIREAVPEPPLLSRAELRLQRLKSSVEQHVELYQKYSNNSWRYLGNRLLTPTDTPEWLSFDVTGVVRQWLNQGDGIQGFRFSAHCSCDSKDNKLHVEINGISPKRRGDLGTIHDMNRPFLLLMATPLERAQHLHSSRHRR
T1 sequence (P04202 279-390 limits assumed): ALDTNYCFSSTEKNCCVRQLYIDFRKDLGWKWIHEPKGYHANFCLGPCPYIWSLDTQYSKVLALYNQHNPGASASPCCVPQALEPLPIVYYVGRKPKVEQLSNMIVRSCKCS
T1 sequence (Q8CG19 24-1712 partner): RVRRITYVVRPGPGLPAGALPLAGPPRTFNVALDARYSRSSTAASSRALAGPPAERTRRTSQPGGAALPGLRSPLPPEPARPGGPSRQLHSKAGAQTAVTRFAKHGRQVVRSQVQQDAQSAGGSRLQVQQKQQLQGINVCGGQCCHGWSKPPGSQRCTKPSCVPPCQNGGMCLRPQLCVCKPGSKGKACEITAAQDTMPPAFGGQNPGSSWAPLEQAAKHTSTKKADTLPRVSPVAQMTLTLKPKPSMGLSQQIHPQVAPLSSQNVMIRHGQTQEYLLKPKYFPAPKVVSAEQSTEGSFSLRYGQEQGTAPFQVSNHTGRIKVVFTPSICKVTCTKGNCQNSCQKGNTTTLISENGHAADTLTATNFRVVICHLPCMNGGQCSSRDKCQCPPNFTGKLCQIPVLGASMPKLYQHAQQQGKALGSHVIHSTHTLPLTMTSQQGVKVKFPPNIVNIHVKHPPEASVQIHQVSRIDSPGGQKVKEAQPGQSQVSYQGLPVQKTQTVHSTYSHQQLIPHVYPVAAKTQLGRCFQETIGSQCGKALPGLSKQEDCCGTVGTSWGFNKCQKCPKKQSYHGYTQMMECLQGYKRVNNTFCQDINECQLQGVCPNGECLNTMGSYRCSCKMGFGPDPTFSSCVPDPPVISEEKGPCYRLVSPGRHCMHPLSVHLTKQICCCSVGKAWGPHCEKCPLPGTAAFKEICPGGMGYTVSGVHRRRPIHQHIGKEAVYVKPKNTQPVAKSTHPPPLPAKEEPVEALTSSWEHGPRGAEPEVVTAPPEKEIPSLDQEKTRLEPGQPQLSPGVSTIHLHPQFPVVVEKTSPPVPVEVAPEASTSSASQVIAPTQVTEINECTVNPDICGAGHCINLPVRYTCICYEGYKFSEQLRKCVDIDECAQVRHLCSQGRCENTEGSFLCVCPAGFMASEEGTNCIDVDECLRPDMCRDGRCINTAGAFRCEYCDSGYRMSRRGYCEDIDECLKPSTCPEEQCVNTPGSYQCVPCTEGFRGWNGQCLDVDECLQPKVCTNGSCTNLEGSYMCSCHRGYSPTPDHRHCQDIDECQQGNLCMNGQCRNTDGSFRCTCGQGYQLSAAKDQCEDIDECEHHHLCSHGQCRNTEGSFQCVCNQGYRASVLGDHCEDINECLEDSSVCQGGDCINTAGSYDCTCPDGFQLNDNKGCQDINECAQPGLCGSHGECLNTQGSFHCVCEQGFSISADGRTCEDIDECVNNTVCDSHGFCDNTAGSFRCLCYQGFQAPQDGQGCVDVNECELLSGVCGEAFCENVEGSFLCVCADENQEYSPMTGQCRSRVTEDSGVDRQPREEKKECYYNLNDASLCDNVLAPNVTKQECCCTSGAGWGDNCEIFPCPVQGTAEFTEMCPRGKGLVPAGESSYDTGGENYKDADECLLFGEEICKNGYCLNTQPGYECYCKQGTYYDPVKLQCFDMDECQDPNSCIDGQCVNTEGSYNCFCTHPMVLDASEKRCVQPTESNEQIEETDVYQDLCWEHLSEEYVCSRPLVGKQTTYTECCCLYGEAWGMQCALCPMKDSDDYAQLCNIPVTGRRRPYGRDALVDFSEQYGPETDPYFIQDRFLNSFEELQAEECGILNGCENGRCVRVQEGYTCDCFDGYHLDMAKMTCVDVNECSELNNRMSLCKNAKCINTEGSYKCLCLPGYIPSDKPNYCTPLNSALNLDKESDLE

[4] = IV formulations; cited from earlier work
[5] = cited from earlier work; remark: listed apart in the source
LDLR mice on HFD = details: for WSS (wall shear stress) / fractional valve opening: LDLR mice on HFD, vs untreated control mice
From the text: Mice. Hypercholesterolemic mice deficient for low-density lipoprotein receptors (Ldlr−/−), which only express ApoB-100 (Ldlr−/−Apob100/100, LDLR), were obtained from Jackson Laboratories (B6; 129SLdlrtm1HerApobtm2Sgy/J, stock no. 003000). WT C57bl/6 mice were also obtained from the Jackson Laboratory (stock no. 000664) and served as controls. TGF-β1^platelet-KO-LDLR mice (Pf4Cre+Tgfb1f/f;Ldlr−/−Apob100/100;) and TGF-β1^flox-LDLR littermate controls (Tgfb1f/f;Ldlr−/−Apob100/100) were generated by crossing LDLR mice with Pf4Cre+;Tgfb1f/f mice, as shown in FIGS. 7A-B and Supplemental Table 5. […] The inventor crossed Tie2Cre mice (stock no. 008863, Jackson Laboratories) with tdTomato lox-stop-lox mice (stock no. 007909, Jackson Laboratories) to generate Tie2Cre;tdTomato mice that express tdTomato only under Cre activity. All mice were housed in a controlled environment (23±2° C.; 12 hours light/dark cycles) and fed either a chow diet (CD) (PicoLab® Rodent Diet 20, 5053) or a customized high fat diet (HFD) (Harlan Teklad, TD.9612102. containing 21% milk fat (MF), 1.25% Cholesterol) in powdered form in a glass jar with perforated metal strainer (DYETS, Braintree Scientific Inc.). The Oklahoma Medical Research Foundation's Institutional Animal Care and Usage Committee approved all procedures.
Experimental Design. A total of 118 LDLR (58 Males, 60 Females) and 20 WT mice (10 Males, 10 Females) were used for this study. Half of the mice (6 weeks old) were switched to HFD and maintained for up to 9 months. Progression and severity (mild/moderate/severe) of AS were monitored at 0, 3, 6 and 9 months by echocardiography using non-invasive ultrasound imaging techniques. Five mice per cage (total of 25 males, 15 females) were treated with 2% N-acetylcysteine (NAC) (Acros Organics, 160280010) in drinking water. NAC was prepared in reverse osmosis water and its pH was adjusted to 7.4 with NaOH. Water was replaced with a fresh solution every week.
Echocardiography. Mice were anesthetized with Isoflurane (3-5% inhalation) in an induction chamber. Mice that appeared to be sick due to severe stenosis or that were underweight were anesthetized using a lower isoflurane level to prevent adverse or lethal effects from the anesthetic. Once visibly anesthetized, isoflurane was reduced to 0.5%-2% and the mouse was moved from the chamber to a nose-cone on a heated platform set at 40° C. to maintain body temperature (35±2° C.). Heavier mice were maintained at higher isoflurane levels as they appeared less sensitive to its anesthetic effects. All four limbs were taped to physiological electrodes and a rectal temperature probe was inserted. Electrode gel was used to enhance the physiologic readings. To ensure accuracy of all echo measurements, physiological parameters were monitored and recordings were only taken if the heart rate was 430-550 beats per minute, respiration was 20-100 breaths per minute, and body temperature was close to 37° C. (35±2° C.).
Measurement of AS parameters using a modified view of ultrasound imaging. Echocardiography is the gold standard non-invasive method to measure AS in humans. However, the mouse heart rate is 10-times faster (500 to 600 beats per minute), making the acquisition of high-resolution images of the very thin non-diseased valves challenging. […] LVOT was measured from the long-axis view and was used to calculate AV pressure and normalize the cusp separation (Lindman et al., 2016; Meyer et al., 2012). This view was obtained by tilting the lower left corner of the platform downward by about 30° and angling the transducer up such that it interfaced with the chest cavity by about 45°.

[6] = LDLR HFD + NAC (2-5 Months), total n=8
[7] = LDLR HFD + NAC (3-5 Months), total n=11
[8] = LDLR HFD + NAC (5-6 Months), total n=7

CC(=O)N[C@@H](CS)C(=O)O [NAC, N-acetylcysteine]
AS progression [1]: little to no further reduction; also recorded: did not show any effect | solubility ([2]; alcohol): soluble | solubility ([2]; chloroform): practically insoluble | solubility ([2]; ether): practically insoluble | solubility ([2]; water): soluble | activity and stability after dissolving in water [3]: validated | TGF-β1 activation (active TGF-β1 levels) in PRP (TGF-β1): much lower | patients experiencing anaphylaxis reaction [4]: Up to 18% | Urine excretion ([5]; in vivo): 22-30% | metabolism ([5]; liver): extensively liver metabolized | Penetrance, fractional valve opening: Mild Stenosis 0.75-0.85, number of mice (LDLR mice on HFD; [6]): 1 | Penetrance, fractional valve opening: Mild Stenosis 0.75-0.85, percent of mice (LDLR mice on HFD; [6]): (12%) | Penetrance, fractional valve opening: Moderate Stenosis 0.6-0.75, number of mice (LDLR mice on HFD; [6]): 2 | Penetrance, fractional valve opening: Moderate Stenosis 0.6-0.75, percent of mice (LDLR mice on HFD; [6]): (25%) | Penetrance, fractional valve opening: No Stenosis >0.85, number of mice (LDLR mice on HFD; [6]): 0 | Penetrance, fractional valve opening: No Stenosis >0.85, percent of mice (LDLR mice on HFD; [6]): (0%) | Penetrance, fractional valve opening: Severe Stenosis <0.6, number of mice (LDLR mice on HFD; [6]): 5 | Penetrance, wall shear stress: Mild Stenosis 350-525 dyn/cm^2, number of mice (LDLR mice on HFD; [6]): 0 | Penetrance, wall shear stress: Mild Stenosis 350-525 dyn/cm^2, percent of mice (LDLR mice on HFD; [6]): (0%) | Penetrance, wall shear stress: Moderate Stenosis 525-700 dyn/cm^2, number of mice (LDLR mice on HFD; [6]): 3 | Penetrance, wall shear stress: Moderate Stenosis 525-700 dyn/cm^2, percent of mice (LDLR mice on HFD; [6]): (37%) | Penetrance, wall shear stress: No Stenosis <350 dyn/cm^2, number of mice (LDLR mice on HFD; [6]): 0 | Penetrance, wall shear stress: No Stenosis <350 dyn/cm^2, percent of mice (LDLR mice on HFD; [6]): (0%) | Penetrance, wall shear stress: Severe Stenosis >700 dyn/cm^2, number of mice (LDLR mice on HFD; [6]): 6 | Penetrance, wall shear stress: Severe Stenosis >700 dyn/cm^2, percent of mice (LDLR mice on HFD; [6]): (63%) | Penetrance, fractional valve opening: Mild Stenosis 0.75-0.85, number of mice (LDLR mice on HFD; [7]): 2 | Penetrance, fractional valve opening: Mild Stenosis 0.75-0.85, percent of mice (LDLR mice on HFD; [7]): (16%) | Penetrance, fractional valve opening: Moderate Stenosis 0.6-0.75, number of mice (LDLR mice on HFD; [7]): 7 | Penetrance, fractional valve opening: Moderate Stenosis 0.6-0.75, percent of mice (LDLR mice on HFD; [7]): (64%) | Penetrance, fractional valve opening: No Stenosis >0.85, number of mice (LDLR mice on HFD; [7]): 0 | Penetrance, fractional valve opening: No Stenosis >0.85, percent of mice (LDLR mice on HFD; [7]): (0%) | Penetrance, fractional valve opening: Severe Stenosis <0.6, number of mice (LDLR mice on HFD; [7]): 2 | Penetrance, fractional valve opening: Severe Stenosis <0.6, percent of mice (LDLR mice on HFD; [7]): (18%) | Penetrance, wall shear stress: Mild Stenosis 350-525 dyn/cm^2, number of mice (LDLR mice on HFD; [7]): 4 | Penetrance, wall shear stress: Mild Stenosis 350-525 dyn/cm^2, percent of mice (LDLR mice on HFD; [7]): (36%) | Penetrance, wall shear stress: Moderate Stenosis 525-700 dyn/cm^2, number of mice (LDLR mice on HFD; [7]): 5 | Penetrance, wall shear stress: Moderate Stenosis 525-700 dyn/cm^2, percent of mice (LDLR mice on HFD; [7]): (46%) | Penetrance, wall shear stress: No Stenosis <350 dyn/cm^2, number of mice (LDLR mice on HFD; [7]): 0 | Penetrance, wall shear stress: No Stenosis <350 dyn/cm^2, percent of mice (LDLR mice on HFD; [7]): (0%) | Penetrance, wall shear stress: Severe Stenosis >700 dyn/cm^2, number of mice (LDLR mice on HFD; [7]): 2 | Penetrance, wall shear stress: Severe Stenosis >700 dyn/cm^2, percent of mice (LDLR mice on HFD; [7]): (18%) | Penetrance, fractional valve opening: Mild Stenosis 0.75-0.85, number of mice (LDLR mice on HFD; [8]): 3 | Penetrance, fractional valve opening: Mild Stenosis 0.75-0.85, percent of mice (LDLR mice on HFD; [8]): (43%) | Penetrance, fractional valve opening: Moderate Stenosis 0.6-0.75, number of mice (LDLR mice on HFD; [8]): 4 | Penetrance, fractional valve opening: Moderate Stenosis 0.6-0.75, percent of mice (LDLR mice on HFD; [8]): (57%) | Penetrance, fractional valve opening: No Stenosis >0.85, number of mice (LDLR mice on HFD; [8]): 0 | Penetrance, fractional valve opening: No Stenosis >0.85, percent of mice (LDLR mice on HFD; [8]): (0%) | Penetrance, fractional valve opening: Severe Stenosis <0.6, number of mice (LDLR mice on HFD; [8]): 0 | Penetrance, fractional valve opening: Severe Stenosis <0.6, percent of mice (LDLR mice on HFD; [8]): (0%) | Penetrance, wall shear stress: Mild Stenosis 350-525 dyn/cm^2, number of mice (LDLR mice on HFD; [8]): 3 | Penetrance, wall shear stress: Mild Stenosis 350-525 dyn/cm^2, percent of mice (LDLR mice on HFD; [8]): (43%) | Penetrance, wall shear stress: Moderate Stenosis 525-700 dyn/cm^2, number of mice (LDLR mice on HFD; [8]): 4 | Penetrance, wall shear stress: Moderate Stenosis 525-700 dyn/cm^2, percent of mice (LDLR mice on HFD; [8]): (57%) | Penetrance, wall shear stress: No Stenosis <350 dyn/cm^2, number of mice (LDLR mice on HFD; [8]): 0 | Penetrance, wall shear stress: No Stenosis <350 dyn/cm^2, percent of mice (LDLR mice on HFD; [8]): (0%) | Penetrance, wall shear stress: Severe Stenosis >700 dyn/cm^2, number of mice (LDLR mice on HFD; [8]): 0 | Penetrance, wall shear stress: Severe Stenosis >700 dyn/cm^2, percent of mice (LDLR mice on HFD; [8]): (0%) | WSS (wall shear stress) (LDLR mice on HFD; NAC months 3-5 (moderate AS)): improved | fractional valve opening (LDLR mice on HFD; NAC months 3-5 (moderate AS)): improved | WSS (wall shear stress) (LDLR mice on HFD; NAC months 5-6 (severe AS)): improved | fractional valve opening (LDLR mice on HFD; NAC months 5-6 (severe AS)): improved | effect on AS (LDLR mice on HFD; long-term NAC treatment (1-6 months) (data not shown)): very little to no effect | atherosclerotic plaque (adverse effect) (LDLR mice on HFD; mouse, in vivo): increased atherosclerotic plaque | heart function (adverse effect) (LDLR mice on HFD; mouse, in vivo): deterioration of heart function | mild to moderate AS progression (LDLR mice on HFD; short-term NAC treatment from 2-3 months (data not shown)): halted
